Structures can show the parent of a compound that is named as a salt.
Target: T1, GPIIb/IIIa (Homo sapiens, UniProt P05106+P08514)
T1 construct: Purification of GPIIb/IIIa from HEL cells; endogenous in cells; host or cells: HEL cells (HEL 92.1.7, ATCC TIB180); endogenous complex solubilized with Triton X-100 and purified in house
Assay: Inhibitory activity against binding of GPIIb/IIIa and fibrinogen
Conditions: Table 2, read-out: GPIIb/IIIa Fibrinogen Binding Inhibitory Activity; for inhibition at 10 µM: 10^-5 M; for inhibition at 1 µM: 10^-6 M
Procedure: Test Example 1: Inhibitory activity against binding of GPIIb/IIIa and fibrinogen
(1) Cultivation of human erythroleukemia-derived cell line (hereinafter referred to as HEL cells)
HEL cells (HEl92.1.7; ATCC No. TIB180) were purchased from ATCC (Rockville, Md., U.S.A.). The medium was RPMI medium (GIBCO Laboratories, Grand Island, N..Y, U.S.A.) containing 40 mM N-2-hydroxyethylpiperazine-N'-2-ethanesulfonic acid (hereinafter referred to as HEPES) (pH 7.0), 0.2% NaHCO3, 100 μg/ml kanamycin and 10% FCS. The cells were cultured in the presence of 5% CO2 at 37° C., with the medium replaced with a fresh medium to obtain a 4- to 5-fold dilution at intervals of 3 to 4 days.
(2) Purification of GPIIb/IIIa from HEL cells
GPIIb/IIIa was purified by a modification of the method of L. A. Fitzgerald et al. [J. Biol. Chem., 262, 3936 (1987)] as follows: All purification was conducted at room temperature, unless otherwise stated. At 7 days of cultivation, cells were collected from the HEL cell culture broth (cell suspension) by centrifugation (1,000 ×g, 10 minutes, 4° C.). After washing with 20 mM Tris-HCl (pH 7.5) containing 1 mM EDTA and 150 mM NaCl, the cells were suspended in a solubilizing buffer (20 mM Tris-HCl, 150 mM NaCl, 1% Triton X-100, 1 mM MgCl2, 1 mM CaCl2, 0.1 mM (p-amidinophenyl)methanesulfonyl fluoride (hereinafter referred to as APMSF), 10 nM leupeptin, 0.02% NaN3, pH 7.4), followed by gentle stirring at 4° C. for 30 minutes, to solubilize the GPIIb/IIIa. The suspension was centrifuged (100,000 ×g, 1 hour) at 4° C., and the cell debris removed, to yield a cell extract. The cell extract was passed through a Heparin-Sepharose CL-6B column (Pharmacia LKB) and a DEAE-Toyopearl 650M column (Tosoh), both previously equilibrated with a column buffer (20 mM Tris-HCl, 150 mM NaCl, 0.1% Triton X-100, 1 mM MgCl2, 1 mM CaCl2, 0.1 mM APMSF, 1 nM leupeptin, 0.05% NaN3, pH 7.4). The effluent was applied to a ConA-Sepharose column (Pharmacia LKB), previously equilibrated with the same column buffer as above, to adsorb the GPIIb/IIIa, followed by elution with the same column buffer but containing 0.5M methyl α-D-mannopyranoside. The eluted fraction was concentrated at 4° C. using an ultrafiltration apparatus (Amicon Corporation the fraction's molecular weight of 10,000), after which it was subjected to gel filtration through a Sephacryl S-300 column (Pharmacia LKB), previously equilibrated with the same column buffer, to yield a purified standard sample.
(3) Biotinization of human fibrinogen
Conducted by the method of I. F. Charo [I. F. Charo et al., J. Biol. Chem., 266, 1415 (1991)].
Human fibrinogen (Kabi Vitrum AB) was dissolved in PBS to 5 mg/ml and then dialyzed at 4° C. against 0.1M carbonate buffer (pH 8.2) containing 0.1M NaCl. After dialysis, insoluble substances were removed by centrifugation (100,000 ×g, 30 minutes), and the dialyzate was diluted to 1 mg/ml with the same buffer. To this dilution, sulfo-N-hydroxysuccinimidebiotin (Pierce Chemical Co.) was added to a final concentration of 0.2 mg/ml, followed by gentle mixing at room temperature for 30 minutes, to biotinize the fibrinogen. After completion of the reaction, the mixture was dialyzed against 0.05M Tris-HCl buffer (pH 7.4) containing 0.1M NaCl and 0.05% NaN3.
(4) Determination of inhibitory activity against fibrinogen binding
Conducted by a modification of the method of I. F. Charo [I. F. Charo et al., J. Biol. Chem., 266, 1415 (1991)] as follows: The purified GPIIb/IIIa was diluted to 1 μg/ml with buffer A (20 mM Tris-HCl, 150 mM NaCl, 1 mM CaCl2, 0.02% NaN3, pH 7.4). A 100 μl aliquot of this dilution was dispensed to a 96-well microplate (Maxisorp, produced by Nunc), and the plate kept standing at 4° C., to adsorb the GPIIb/IIIa to the microplate. Next, 150 μl of buffer B (35 mg/ml BSA, 50 mM Tris-HCl, 100 mM NaCl, 2 mM CaCl2, 0.02% NaN3, pH 7.4) was added, followed by 2 hours of blocking at 30° C. […]

T1 sequence (P08514 32-887 limits assumed): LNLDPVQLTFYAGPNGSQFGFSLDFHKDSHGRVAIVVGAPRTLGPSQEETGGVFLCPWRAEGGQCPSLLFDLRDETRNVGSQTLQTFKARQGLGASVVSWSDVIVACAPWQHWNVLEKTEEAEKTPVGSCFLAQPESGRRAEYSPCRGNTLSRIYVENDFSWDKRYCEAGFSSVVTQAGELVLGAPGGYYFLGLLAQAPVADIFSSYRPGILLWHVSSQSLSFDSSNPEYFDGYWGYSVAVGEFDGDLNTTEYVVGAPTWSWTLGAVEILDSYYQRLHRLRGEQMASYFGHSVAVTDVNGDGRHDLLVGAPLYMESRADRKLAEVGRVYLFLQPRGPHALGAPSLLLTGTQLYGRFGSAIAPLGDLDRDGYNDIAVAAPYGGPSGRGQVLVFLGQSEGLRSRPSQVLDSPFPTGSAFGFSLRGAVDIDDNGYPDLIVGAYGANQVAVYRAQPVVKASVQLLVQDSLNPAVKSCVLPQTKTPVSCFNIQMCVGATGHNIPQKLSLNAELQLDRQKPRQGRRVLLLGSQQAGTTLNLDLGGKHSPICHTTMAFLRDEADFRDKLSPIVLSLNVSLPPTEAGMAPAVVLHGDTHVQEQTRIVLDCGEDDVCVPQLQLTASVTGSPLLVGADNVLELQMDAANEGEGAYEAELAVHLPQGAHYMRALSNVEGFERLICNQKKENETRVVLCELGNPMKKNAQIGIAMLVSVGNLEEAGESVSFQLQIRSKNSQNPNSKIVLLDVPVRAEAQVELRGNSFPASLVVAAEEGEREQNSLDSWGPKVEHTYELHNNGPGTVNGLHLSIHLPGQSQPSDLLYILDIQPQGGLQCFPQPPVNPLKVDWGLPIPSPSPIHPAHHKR
T1 sequence (P08514 891-1039 limits assumed): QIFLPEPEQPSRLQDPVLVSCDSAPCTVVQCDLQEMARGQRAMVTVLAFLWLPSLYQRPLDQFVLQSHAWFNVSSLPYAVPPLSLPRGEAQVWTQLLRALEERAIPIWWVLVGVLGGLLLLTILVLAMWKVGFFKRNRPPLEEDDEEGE
T1 sequence (P05106 27-788): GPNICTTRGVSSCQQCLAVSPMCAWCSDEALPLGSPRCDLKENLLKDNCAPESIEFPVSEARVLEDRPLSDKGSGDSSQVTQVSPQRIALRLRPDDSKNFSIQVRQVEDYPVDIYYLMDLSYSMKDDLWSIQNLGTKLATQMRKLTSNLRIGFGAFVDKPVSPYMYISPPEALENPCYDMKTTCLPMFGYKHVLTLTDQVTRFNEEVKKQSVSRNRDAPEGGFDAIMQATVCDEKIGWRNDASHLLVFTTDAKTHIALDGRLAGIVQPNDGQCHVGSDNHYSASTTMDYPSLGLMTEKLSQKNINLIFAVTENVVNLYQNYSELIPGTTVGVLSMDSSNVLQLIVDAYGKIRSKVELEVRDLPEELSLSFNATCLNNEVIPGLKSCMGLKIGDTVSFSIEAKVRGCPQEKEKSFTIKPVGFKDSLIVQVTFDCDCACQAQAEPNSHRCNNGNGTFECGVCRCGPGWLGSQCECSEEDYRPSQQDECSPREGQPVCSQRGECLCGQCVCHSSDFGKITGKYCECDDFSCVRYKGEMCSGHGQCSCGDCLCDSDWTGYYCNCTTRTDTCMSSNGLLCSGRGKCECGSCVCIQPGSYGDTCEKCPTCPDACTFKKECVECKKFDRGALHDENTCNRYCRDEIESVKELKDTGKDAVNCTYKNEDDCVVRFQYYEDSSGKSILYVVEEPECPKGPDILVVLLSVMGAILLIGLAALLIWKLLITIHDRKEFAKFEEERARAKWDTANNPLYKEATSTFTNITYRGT

Row | inhibition at 10 µM [%] | inhibition at 1 µM [%] | Compound
1 | 50.6 | 34.7 | O=C(O)c1cn(C2CC2)c2c(F)c(N3CCn4ccnc4C3)c(F)c(F)c2c1=O [Compound 40]
2 | 58.8 | 17.9 | NC(=O)CCCNc1c(F)cc2c(=O)c(C(=O)O)cn(C3CC3)c2c1F [Compound 41]
3 | 67.3 | 38.6 | CN1CCN(C(=O)CCCNc2c(F)cc3c(=O)c(C(=O)O)cn(C4CC4)c3c2F)CC1 [Compound 42]
4 | 52.1 | 20.2 | C=CCN(CC=C)c1c(F)cc2c(=O)c(C(=O)O)cn(C3CC3)c2c1F [Compound 43]
5 | 61.6 | 33.4 | Nc1c(F)c(N2CCN3CCC[C@@H]3C2)c(F)c2c1c(=O)c(C(=O)O)cn2C1CC1 [Compound 44]
6 | 59.9 | 31.4 | COn1cc(C(=O)O)c(=O)c2cc(F)c(N3CCn4ccnc4C3)c(F)c21 [Compound 45]
7 |  | 41.6 | O=C(O)c1cn(C2CCc3ccccc32)c2c(F)c(N3CCNCC3)c(F)cc2c1=O (centres unmarked) [Compound 46, 6,8-Difluoro-1-(indan-1-yl)-7-(piperazin-1-yl) 1,4-dihydro-4-oxoquinoline-3-carboxylic acid]
8 |  | 43.1 | NC(=O)OC1CCN(c2c(F)cc3c(=O)c(C(=O)O)cn(-c4ccc(F)cc4F)c3c2F)C1 (centres unmarked) [Compound 47]
9 |  | 57.7 | NCc1nc2c(s1)CCN(c1c(F)cc3c(=O)c(C(=O)O)cn(C4CC4)c3c1F)C2 [Compound 48]
10 |  | 30.5 | NC(=O)c1ccc(-n2cc(C(=O)O)c(=O)c3cc(F)c(N4CCNCC4)c(F)c32)cc1 [Compound 49]
11 | 99.8 | 92.3 | CN1CCN(c2c(F)cc3c(=O)c(C(=O)O)cn(Cc4nccs4)c3c2F)CC1 [Compound 50, 6,8-Difluoro-7-(4-methylpiperazin-1-yl)-1-(thiazol-2-yl)methyl-1,4-dihydro-4-oxoquinoline-3-carboxylic acid hydrochloride]
12 | 97.5 | 88.1 | O=C(O)c1cn(Cc2nccs2)c2c(F)c(N3CCn4ccnc4C3)c(F)cc2c1=O [Compound 51]
13 | 90.8 | 55 | O=C(O)c1cn2c3c(c(N4CCn5ccnc5C4)c(F)cc3c1=O)OCC2 [Compound 52, 9-Fluoro-10-(5,6,7,8-tetrahydroimidazo[1,2-a]pyrazin-7-yl)-2,3-dihydro-7-oxo-7H-pyrido[1,2,3-a][1,4]benzoxazine-6-carboxylic acid]
14 | 89.5 | 47.6 | CN1CCN(c2c(F)cc3c(=O)c(C(=O)O)cn4c3c2N(C)CC4)CC1 [Compound 53, 9-Fluoro-1-methyl-10-(4-methylpiperazin-1-yl) 7-oxo-2,3-dihydro-1H,7H-pyrido[1,2,3-de]quinoxaline-6-carboxylic acid]
15 | 50.1 | 21 | O=C(O)c1cn(-c2ccncc2)c2c(F)c(N3CCNCC3)c(F)cc2c1=O [Compound 54]
16 | 100 | 93.8 | O=C(O)c1cn(Cc2ccccc2)c2c(F)c(N3CCNCC3)c(F)cc2c1=O [Compound 55, 1-Benzyl-6,8-difluoro-7-(1-piperazinyl)-1,4-dihydro-4-oxoquinoline-3-carboxylic acid]
17 | 88.2 | 72.2 | O=C(O)c1cn(CCc2ccccc2)c2c(F)c(N3CCNCC3)c(F)cc2c1=O [Compound 56]

Row | inhibition at 10 µM [%] | inhibition at 1 µM [%] | Compound
18 | 100 | 100 | O=C(O)c1cn(Cc2nccs2)c2cc(N3CCN(c4ccncc4)CC3)ccc2c1=O [Compound 57, 7-[4-(4-Pyridyl)piperazine-1-yl]-1-(2-thiazolylmethyl)-1,4-dihydro-4-oxoquinoline-3-carboxylic acid]
19 | 100 | 100 | O=C(O)c1cn(Cc2nccs2)c2cc(N3CCC(C4CCNCC4)CC3)ccc2c1=O [Compound 58, 7-[4-(4-Piperidinyl)piperidin-1-yl]-1-(2-thiazolylmethyl)-1,4-dihydro-4-oxoquinoline-3-carboxylic acid]
20 | 100 | 100 | O=C(O)c1cn(Cc2nccs2)c2c(F)c(N3CCNCC3)c(F)cc2c1=O [Compound 59, 6,8-Difluoro-7-(1-piperazinyl)-1-(2-thiazolylmethyl)-1,4-dihydro-4-oxoquinoline-3-carboxylic acid hydrochloride]
21 | 100 | 95 | CN(C)CCCNc1c(F)cc2c(=O)c(C(=O)O)cn(Cc3nccs3)c2c1F [Compound 60]
22 | 100 | 97.1 | O=C(O)c1cn(Cc2nccs2)c2c(F)c(N3CCCNCC3)c(F)cc2c1=O [Compound 61]
23 | 100 | 100 | CN(C)CCOC1CCN(c2c(F)cc3c(=O)c(C(=O)O)cn(Cc4nccs4)c3c2F)C1 (centres unmarked) [Compound 62]
24 | 100 | 100 | CN1CCN(C(=O)OC2CCN(c3c(F)cc4c(=O)c(C(=O)O)cn(Cc5nccs5)c4c3F)C2)CC1 (centres unmarked) [Compound 63]
25 | 100 | 100 | O=C(O)c1cn(Cc2nccs2)c2c(F)c(N3CCN(c4ccncc4)CC3)c(F)cc2c1=O [Compound 64]
26 | 100 | 81.2 | O=C(O)c1cn(Cc2nccs2)c2c(F)c(N3CCN(c4ccccn4)CC3)c(F)cc2c1=O [Compound 65]
27 | 100 | 86.7 | O=C(O)c1cn(Cc2nccs2)c2c(F)c(N3CCN(c4cccnc4)CC3)c(F)cc2c1=O [Compound 66]
28 | 58.6 | 76.4 | O=C(O)c1cn(Cc2nccs2)c2c(F)c(N3CCN(c4cc(N5CCCC5)nc(N5CCCC5)n4)CC3)c(F)cc2c1=O [Compound 67]
29 | 100 | 100 | O=C(O)c1cn(Cc2nccs2)c2c(F)c(N3CCC(C4CCNCC4)CC3)c(F)cc2c1=O [Compound 68]
30 | 100 | 92.2 | CC(=O)NCCN1CCN(c2c(F)cc3c(=O)c(C(=O)O)cn(Cc4nccs4)c3c2F)CC1 [Compound 69]
31 | 100 | 95.9 | NCCN1CCN(c2c(F)cc3c(=O)c(C(=O)O)cn(Cc4nccs4)c3c2F)CC1 [Compound 70]
32 | 100 | 100 | O=C(O)c1cn(Cc2nccs2)c2c(F)c(N3CCN(CCO)CC3)c(F)cc2c1=O [Compound 71]
33 | 100 | 88.6 | O=C(O)c1cn(Cc2cscn2)c2c(F)c(N3CCNCC3)c(F)cc2c1=O [Compound 72, 6,8-Difluoro-7-(1-piperazinyl)-1-(4-thiazolylmethyl)-1,4-dihydro-4-oxoquinoline-3-carboxylic acid hydrochloride]
